In ChEMBL document CHEMBL1909046, “DrugMatrix in vitro pharmacology data”:

Legend:
Adenosine receptor A1 = target: T1, Adenosine receptor A1 (Homo sapiens, UniProt P30542); type: cell membranes, CHO, Membrane; details: cho;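 note: radioligand binding assay at the adenosine A1 receptor, with DPCPX serving as the labelled ligand; in other assays of this panel Not Active means under 50% inhibition at 10 µM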
T1 sequence (P30542 whole entry): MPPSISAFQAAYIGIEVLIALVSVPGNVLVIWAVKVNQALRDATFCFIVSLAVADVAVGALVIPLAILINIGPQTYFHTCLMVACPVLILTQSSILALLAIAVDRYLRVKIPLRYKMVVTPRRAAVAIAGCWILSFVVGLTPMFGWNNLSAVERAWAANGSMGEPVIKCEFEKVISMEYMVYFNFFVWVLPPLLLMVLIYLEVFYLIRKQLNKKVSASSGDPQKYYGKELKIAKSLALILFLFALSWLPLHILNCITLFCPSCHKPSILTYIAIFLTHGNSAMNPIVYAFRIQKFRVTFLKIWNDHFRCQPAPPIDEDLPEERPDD

Melanocortin receptor 5 = Melanocortin receptor 5 (Homo sapiens, UniProt P33032); type: cell membranes, HEK293, Membrane; details: hek293; note: in other assays of this panel Not Active means under 50% inhibition at 10 µM
Chain of Melanocortin receptor 5 (P33032 whole entry): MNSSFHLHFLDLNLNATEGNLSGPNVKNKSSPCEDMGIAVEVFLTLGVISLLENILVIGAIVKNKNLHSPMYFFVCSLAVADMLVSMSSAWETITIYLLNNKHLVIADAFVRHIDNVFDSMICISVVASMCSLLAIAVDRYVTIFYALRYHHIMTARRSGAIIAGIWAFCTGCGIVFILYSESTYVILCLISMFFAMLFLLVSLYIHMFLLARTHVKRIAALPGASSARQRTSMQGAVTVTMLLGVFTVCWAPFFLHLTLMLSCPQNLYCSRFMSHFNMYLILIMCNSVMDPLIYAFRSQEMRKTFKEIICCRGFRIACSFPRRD

Histamine H2 receptor = Histamine H2 receptor (Homo sapiens, UniProt P25021); type: cell membranes, CHO-K1, Membrane; details: cho-k1; note: in other assays of this panel Not Active means under 50% inhibition at 10 µM
Chain of Histamine H2 receptor (P25021 whole entry): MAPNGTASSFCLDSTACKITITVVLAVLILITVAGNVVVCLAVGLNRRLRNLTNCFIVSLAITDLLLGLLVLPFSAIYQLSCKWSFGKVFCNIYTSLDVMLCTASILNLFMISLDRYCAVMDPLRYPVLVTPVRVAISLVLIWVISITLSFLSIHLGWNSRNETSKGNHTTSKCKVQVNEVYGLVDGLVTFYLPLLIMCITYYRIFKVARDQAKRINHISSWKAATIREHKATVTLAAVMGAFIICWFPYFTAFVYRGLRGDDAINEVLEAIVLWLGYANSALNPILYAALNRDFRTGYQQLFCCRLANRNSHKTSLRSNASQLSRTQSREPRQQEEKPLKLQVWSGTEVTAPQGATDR

[1] = DRUGMATRIX: Calcium Channel Type L, Dihydropyridine radioligand binding (ligand: [3H] Nitrendipine); type: cell membranes, Rattus norvegicus, Wistar, Cerebral cortex, Membrane; details: Not Active = under 50% inhibition at 10 µM
[2] = target: Sodium-dependent dopamine transporter (Homo sapiens, UniProt Q01959); assay: DRUGMATRIX: Dopamine Transporter radioligand binding (ligand: [125I] RTI-55); type: cell membranes, CHO-K1, Membrane; details: cho-k1; Not Active = under 50% inhibition at 10 µM
Chain of Sodium-dependent dopamine transporter (Q01959 whole entry): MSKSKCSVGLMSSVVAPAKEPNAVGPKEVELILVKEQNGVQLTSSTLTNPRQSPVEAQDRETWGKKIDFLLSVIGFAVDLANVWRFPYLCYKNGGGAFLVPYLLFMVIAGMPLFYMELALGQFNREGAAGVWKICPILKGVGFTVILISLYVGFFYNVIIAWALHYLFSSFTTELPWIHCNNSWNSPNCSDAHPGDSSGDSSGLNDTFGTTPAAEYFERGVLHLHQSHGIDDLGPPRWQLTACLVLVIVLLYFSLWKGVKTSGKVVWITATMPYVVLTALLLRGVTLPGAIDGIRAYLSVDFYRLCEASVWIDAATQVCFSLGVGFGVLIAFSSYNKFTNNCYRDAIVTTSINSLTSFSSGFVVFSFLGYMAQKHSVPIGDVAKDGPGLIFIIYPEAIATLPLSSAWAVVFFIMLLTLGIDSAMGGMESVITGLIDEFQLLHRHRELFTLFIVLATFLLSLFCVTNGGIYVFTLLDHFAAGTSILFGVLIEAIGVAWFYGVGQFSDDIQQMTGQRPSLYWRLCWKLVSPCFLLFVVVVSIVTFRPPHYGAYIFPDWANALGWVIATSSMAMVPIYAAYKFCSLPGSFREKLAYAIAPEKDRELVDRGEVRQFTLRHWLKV

[3] = target: T2, Muscarinic acetylcholine receptor M4 (Homo sapiens, UniProt P08173); type: cell membranes, CHO-K1, Membrane; details: cho-k1; note: in other assays of this panel Not Active means under 50% inhibition at 10 µM
T2 sequence (P08173 whole entry): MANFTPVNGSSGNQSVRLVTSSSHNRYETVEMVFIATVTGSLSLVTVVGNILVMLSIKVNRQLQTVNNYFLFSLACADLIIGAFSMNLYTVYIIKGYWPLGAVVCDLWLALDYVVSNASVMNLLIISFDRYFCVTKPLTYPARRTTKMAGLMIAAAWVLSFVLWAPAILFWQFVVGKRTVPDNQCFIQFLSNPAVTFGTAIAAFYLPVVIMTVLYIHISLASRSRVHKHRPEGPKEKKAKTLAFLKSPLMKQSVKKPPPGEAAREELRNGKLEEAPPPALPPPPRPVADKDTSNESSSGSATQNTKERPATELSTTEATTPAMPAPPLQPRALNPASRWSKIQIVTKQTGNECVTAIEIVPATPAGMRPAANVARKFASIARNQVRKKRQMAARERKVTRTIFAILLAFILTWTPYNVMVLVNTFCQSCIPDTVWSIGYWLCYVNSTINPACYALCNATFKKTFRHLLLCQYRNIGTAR

Nn1nnc2ccccc21
Not Active: IC50 (Adenosine receptor A1) | IC50 (Melanocortin receptor 5) | IC50 (Histamine H2 receptor) | IC50 [1] | Ki [1] | IC50 [2] | IC50 [3]

CC[C@]1(O)CC[C@H]2[C@@H]3CCC4=CCCC[C@@H]4[C@H]3CC[C@@]21C
Not Active: IC50 (Adenosine receptor A1) | IC50 (Melanocortin receptor 5) | IC50 (Histamine H2 receptor) | IC50 [1] | Ki [1] | IC50 [2] | IC50 [3]

N[C@@H](Cc1ccc(F)cc1)C(=O)O
Not Active: IC50 (Adenosine receptor A1) | IC50 (Melanocortin receptor 5) | IC50 (Histamine H2 receptor) | IC50 [1] | Ki [1] | IC50 [2] | IC50 [3]

CCOC(=O)[C@H](CCc1ccccc1)N[C@@H](C)C(=O)N1Cc2ccccc2C[C@H]1C(=O)O
Not Active: IC50 (Adenosine receptor A1) | IC50 (Melanocortin receptor 5) | IC50 (Histamine H2 receptor) | IC50 [1] | Ki [1] | IC50 [2] | IC50 [3]

O=C(c1ccccc1Cl)N1CCC(Cc2ccccc2)CC1
Not Active: IC50 (Adenosine receptor A1) | IC50 (Melanocortin receptor 5) | IC50 (Histamine H2 receptor) | IC50 [1] | Ki [1] | IC50 [2] | IC50 [3]

CCOC(=O)[C@H](CCc1ccccc1)N[C@@H](C)C(=O)N1CCC[C@H]1C(=O)O
Not Active: IC50 (Adenosine receptor A1) | IC50 (Melanocortin receptor 5) | IC50 (Histamine H2 receptor) | IC50 [1] | Ki [1] | IC50 [2] | IC50 [3]

Clc1cc2c(cc1Cl)Oc1cc(Cl)c(Cl)cc1O2 [2,3,7,8-TETRACHLORODIBENZO-P-DIOXIN]
Not Active: IC50 (Adenosine receptor A1) | IC50 (Melanocortin receptor 5) | IC50 (Histamine H2 receptor) | IC50 [1] | Ki [1] | IC50 [2] | IC50 [3]

C=C1/C(=C\C=C2/CCC[C@]3(C)[C@@H]([C@H](C)CCCC(C)C)CC[C@@H]23)C[C@@H](O)C[C@@H]1O [ALFACALCIDOL]
Not Active: IC50 (Adenosine receptor A1) | IC50 (Melanocortin receptor 5) | IC50 (Histamine H2 receptor) | IC50 [1] | Ki [1] | IC50 [2] | IC50 [3]

CCCCCC[C@H]1C(=O)O[C@H](C)[C@H](NC(=O)c2cccc(NC=O)c2O)C(=O)O[C@@H](C)[C@@H]1OC(=O)CC(C)C [ANTIMYCIN A]
Not Active: IC50 (Adenosine receptor A1) | IC50 (Melanocortin receptor 5) | IC50 (Histamine H2 receptor) | IC50 [1] | Ki [1] | IC50 [2] | IC50 [3]

C[C@@H]1CC[C@H]2[C@@H](C)C(=O)O[C@@H]3O[C@@]4(C)CC[C@@H]1[C@]32OO4 [ARTEMISININ]
Not Active: IC50 (Adenosine receptor A1) | IC50 (Melanocortin receptor 5) | IC50 (Histamine H2 receptor) | IC50 [1] | Ki [1] | IC50 [2] | IC50 [3]

CO[C@H]1[C@@H](O)[C@H](N)[C@@H](O[C@H]2O[C@H]([C@H](C)N)CC[C@H]2N)[C@H](O)[C@@H]1N(C)C(=O)CN [ASTROMICIN]
Not Active: IC50 (Adenosine receptor A1) | IC50 (Melanocortin receptor 5) | IC50 (Histamine H2 receptor) | IC50 [1] | Ki [1] | IC50 [2] | IC50 [3]

[N-]=[N+]=CC(=O)OC[C@H](N)C(=O)O [AZASERINE]
Not Active: IC50 (Adenosine receptor A1) | IC50 (Melanocortin receptor 5) | IC50 (Histamine H2 receptor) | IC50 [1] | Ki [1] | IC50 [2] | IC50 [3]

CC[C@H]1OC(=O)[C@H](C)[C@@H](O[C@H]2C[C@@](C)(OC)[C@@H](O)[C@H](C)O2)[C@H](C)[C@@H](O[C@@H]2O[C@H](C)C[C@H](N(C)C)[C@H]2O)[C@](C)(O)C[C@@H](C)CN(C)[C@H](C)[C@@H](O)[C@]1(C)O [AZITHROMYCIN]
Not Active: IC50 (Adenosine receptor A1) | IC50 (Melanocortin receptor 5) | IC50 (Histamine H2 receptor) | IC50 [1] | Ki [1] | IC50 [2] | IC50 [3]

CC(C)(C)c1ccc(S(=O)(=O)/C=C/C#N)cc1 [BAY-11-7085]
Not Active: IC50 (Adenosine receptor A1) | IC50 (Melanocortin receptor 5) | IC50 (Histamine H2 receptor) | IC50 [1] | Ki [1] | IC50 [2] | IC50 [3]
